Test results published in ChEMBL document CHEMBL1201862, “PubChem BioAssay data set” (2004).
Calls of active or inactive are those of the source.

Experiments:
H9c2 = assay: cells; type: functional, cell-based; conditions: Rattus norvegicus, H9c2, Myocardium
Escherichia coli = assay: microbe, parasite or virus in culture
[1] = decrease of insulin promoter-GFP reporter – imaging, high-content screening, mouse beta cells (AID 1628); type: functional; conditions: MIN6
[2] = MIN6 cell viability loss – mouse insulinoma, cytotoxicity control, dose response (AID 2122); type: functional;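 also: confirmatory high-throughput counterscreen run to flag cytotoxic compounds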
[3] = reduction of Shn3 3'UTR-driven luciferase in osteoblasts – cell-based, Clone20 osteoblasts, firefly luciferase, cherry-picked, dose response (AID 624132); type: functional;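 also: firefly luciferase luminescence from reporter carrying the Shn3 3'UTR in osteoblasts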
[4] = loss of viability in HepG2 cells – cell-based, CellTiter-Glo, cherry-picked, cytotoxicity control for Shn3 inhibitor project, dose response (AID 624134); type: functional
[5] = non-specific 3'UTR reporter inhibition in Clone20-Shn3RL – cell-based, Renilla luciferase, cherry-picked, counter-screen for Shn3 inhibitor project, dose response (AID 624133); type: functional
[6] = biological target: T1, Tyrosine-protein phosphatase non-receptor type 7 (Homo sapiens, UniProt P35236); type: functional
T1 sequence (P35236 whole entry): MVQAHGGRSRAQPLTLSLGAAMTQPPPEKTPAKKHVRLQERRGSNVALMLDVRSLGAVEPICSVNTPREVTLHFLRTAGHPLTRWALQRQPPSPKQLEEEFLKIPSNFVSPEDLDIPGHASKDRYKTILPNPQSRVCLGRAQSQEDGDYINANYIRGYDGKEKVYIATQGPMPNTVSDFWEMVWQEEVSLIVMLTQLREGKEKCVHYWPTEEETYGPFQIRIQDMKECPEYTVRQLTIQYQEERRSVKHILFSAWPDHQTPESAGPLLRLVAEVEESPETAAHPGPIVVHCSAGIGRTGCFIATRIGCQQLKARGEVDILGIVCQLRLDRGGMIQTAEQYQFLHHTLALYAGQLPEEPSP

[7] = biological target: T2, Tyrosine-protein phosphatase non-receptor type 22 (Homo sapiens, UniProt Q9Y2R2); type: functional
T2 sequence (Q9Y2R2 whole entry): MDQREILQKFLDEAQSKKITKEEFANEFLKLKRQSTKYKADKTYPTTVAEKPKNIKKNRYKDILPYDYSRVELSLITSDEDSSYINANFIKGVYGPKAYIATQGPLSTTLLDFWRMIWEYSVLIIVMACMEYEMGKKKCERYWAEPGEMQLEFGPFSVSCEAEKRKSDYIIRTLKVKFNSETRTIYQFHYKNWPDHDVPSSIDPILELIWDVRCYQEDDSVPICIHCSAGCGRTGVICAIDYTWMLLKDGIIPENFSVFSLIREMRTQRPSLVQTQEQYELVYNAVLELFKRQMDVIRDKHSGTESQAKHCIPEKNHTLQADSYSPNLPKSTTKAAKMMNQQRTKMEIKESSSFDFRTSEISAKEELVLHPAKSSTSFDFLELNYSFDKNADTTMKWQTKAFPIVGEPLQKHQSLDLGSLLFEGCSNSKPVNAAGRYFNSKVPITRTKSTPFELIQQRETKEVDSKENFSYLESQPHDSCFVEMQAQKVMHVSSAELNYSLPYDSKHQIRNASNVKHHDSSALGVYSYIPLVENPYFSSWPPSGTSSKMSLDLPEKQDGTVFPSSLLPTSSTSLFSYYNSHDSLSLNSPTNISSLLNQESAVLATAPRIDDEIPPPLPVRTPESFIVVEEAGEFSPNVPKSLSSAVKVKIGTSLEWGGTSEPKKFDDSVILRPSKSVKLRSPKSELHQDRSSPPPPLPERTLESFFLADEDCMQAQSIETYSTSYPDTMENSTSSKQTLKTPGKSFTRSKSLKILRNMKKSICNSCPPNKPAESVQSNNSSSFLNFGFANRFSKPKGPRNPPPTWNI

[8] = biological target: T2, Tyrosine-protein phosphatase non-receptor type 22; type: functional; remark: listed apart in the source
[9] = biological target: T3, Rac GTPase-activating protein 1 (Homo sapiens, UniProt Q9H0H5); assay: blockers of MgcRacGAP-driven Rac1 GTP hydrolysis – biochemical, ADP Hunter fluorescence, primary and confirmatory, confirmation (AID 624330); type: functional
T3 sequence (Q9H0H5 whole entry): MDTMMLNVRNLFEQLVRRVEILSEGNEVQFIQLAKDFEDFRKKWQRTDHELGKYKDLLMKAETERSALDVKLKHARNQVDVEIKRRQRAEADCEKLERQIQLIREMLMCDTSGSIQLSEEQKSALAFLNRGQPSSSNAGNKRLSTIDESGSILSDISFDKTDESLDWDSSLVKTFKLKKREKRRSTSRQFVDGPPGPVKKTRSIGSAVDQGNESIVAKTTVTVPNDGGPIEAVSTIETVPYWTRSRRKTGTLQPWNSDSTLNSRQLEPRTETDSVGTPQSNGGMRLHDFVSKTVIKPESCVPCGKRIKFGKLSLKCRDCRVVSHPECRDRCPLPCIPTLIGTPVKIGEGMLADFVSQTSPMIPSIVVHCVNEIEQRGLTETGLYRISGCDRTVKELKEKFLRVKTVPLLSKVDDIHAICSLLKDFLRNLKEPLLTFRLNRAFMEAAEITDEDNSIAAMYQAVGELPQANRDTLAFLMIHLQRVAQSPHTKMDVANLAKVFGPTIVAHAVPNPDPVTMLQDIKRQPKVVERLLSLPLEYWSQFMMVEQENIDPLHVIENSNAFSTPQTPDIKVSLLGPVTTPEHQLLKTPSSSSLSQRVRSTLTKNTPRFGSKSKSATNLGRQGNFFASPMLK

Trypsin = Trypsin (Sus scrofa, UniProt P00761); assay: trypsin protease activity blockade – biochemical, quenched peptide fluorescence, cherry-pick, selectivity assay for Rce1 protease inhibitor project, dose response (AID 488789)
Sequence of Trypsin (P00761 whole entry): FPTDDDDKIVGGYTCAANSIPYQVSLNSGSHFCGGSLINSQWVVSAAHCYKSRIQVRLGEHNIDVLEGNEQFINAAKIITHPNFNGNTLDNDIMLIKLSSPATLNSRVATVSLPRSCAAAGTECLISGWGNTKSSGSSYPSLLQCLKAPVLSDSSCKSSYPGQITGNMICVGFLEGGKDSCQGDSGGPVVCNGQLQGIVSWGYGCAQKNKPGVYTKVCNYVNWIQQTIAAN

CAAX prenyl protease 2 [10] = biological target: T4, CAAX prenyl protease 2 (Saccharomyces cerevisiae S288c, UniProt Q03530); type: biochemical
T4 sequence (Q03530 whole entry): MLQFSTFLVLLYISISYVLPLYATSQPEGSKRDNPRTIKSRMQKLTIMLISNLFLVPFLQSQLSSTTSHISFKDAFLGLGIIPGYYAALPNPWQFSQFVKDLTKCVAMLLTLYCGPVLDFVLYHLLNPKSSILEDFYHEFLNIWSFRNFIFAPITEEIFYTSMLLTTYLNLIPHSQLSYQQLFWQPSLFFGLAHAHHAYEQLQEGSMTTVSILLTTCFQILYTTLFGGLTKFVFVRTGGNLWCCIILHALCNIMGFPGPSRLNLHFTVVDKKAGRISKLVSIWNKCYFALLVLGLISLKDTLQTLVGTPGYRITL

CAAX prenyl protease 2 [11] = biological target: CAAX prenyl protease 2 (Homo sapiens, UniProt Q9Y256); assay: inhibition of Ras-converting CAAX protease Rce1 – biochemical, yeast membranes, quenched-peptide fluorescence, cherry-pick, dose response (AID 588849)
Sequence of CAAX prenyl protease 2 (Homo sapiens, UniProt Q9Y256) (Q9Y256 whole entry): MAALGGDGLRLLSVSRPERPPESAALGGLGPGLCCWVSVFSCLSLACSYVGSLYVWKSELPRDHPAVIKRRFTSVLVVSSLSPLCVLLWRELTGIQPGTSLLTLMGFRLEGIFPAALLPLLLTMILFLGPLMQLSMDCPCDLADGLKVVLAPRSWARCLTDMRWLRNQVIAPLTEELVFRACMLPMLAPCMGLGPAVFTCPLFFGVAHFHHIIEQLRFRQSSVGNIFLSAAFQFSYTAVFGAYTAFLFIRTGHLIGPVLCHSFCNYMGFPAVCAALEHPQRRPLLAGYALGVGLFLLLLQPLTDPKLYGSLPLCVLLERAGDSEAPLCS

HEK293 [12] = assay: inhibition of NOD1-driven NF-kB reporter – cell-based, luminescence, uHTS, primary screen (AID 1578); type: functional; conditions: Homo sapiens
HEK293 [13] = assay: cells; type: functional, cell-based; conditions: Homo sapiens
HEK293 [14] = assay: cells; type: functional, cell-based; conditions: Homo sapiens; remark: listed apart in the source
[15] = biological target: Nucleotide-binding oligomerization domain-containing protein 2 (Homo sapiens, UniProt Q9HC29); assay: inhibition of NOD2-driven NF-kB reporter – cell-based, luminescence, uHTS, HEK293 (AID 1566); type: functional
Sequence of Nucleotide-binding oligomerization domain-containing protein 2 (Q9HC29 whole entry, the tested form may be a part): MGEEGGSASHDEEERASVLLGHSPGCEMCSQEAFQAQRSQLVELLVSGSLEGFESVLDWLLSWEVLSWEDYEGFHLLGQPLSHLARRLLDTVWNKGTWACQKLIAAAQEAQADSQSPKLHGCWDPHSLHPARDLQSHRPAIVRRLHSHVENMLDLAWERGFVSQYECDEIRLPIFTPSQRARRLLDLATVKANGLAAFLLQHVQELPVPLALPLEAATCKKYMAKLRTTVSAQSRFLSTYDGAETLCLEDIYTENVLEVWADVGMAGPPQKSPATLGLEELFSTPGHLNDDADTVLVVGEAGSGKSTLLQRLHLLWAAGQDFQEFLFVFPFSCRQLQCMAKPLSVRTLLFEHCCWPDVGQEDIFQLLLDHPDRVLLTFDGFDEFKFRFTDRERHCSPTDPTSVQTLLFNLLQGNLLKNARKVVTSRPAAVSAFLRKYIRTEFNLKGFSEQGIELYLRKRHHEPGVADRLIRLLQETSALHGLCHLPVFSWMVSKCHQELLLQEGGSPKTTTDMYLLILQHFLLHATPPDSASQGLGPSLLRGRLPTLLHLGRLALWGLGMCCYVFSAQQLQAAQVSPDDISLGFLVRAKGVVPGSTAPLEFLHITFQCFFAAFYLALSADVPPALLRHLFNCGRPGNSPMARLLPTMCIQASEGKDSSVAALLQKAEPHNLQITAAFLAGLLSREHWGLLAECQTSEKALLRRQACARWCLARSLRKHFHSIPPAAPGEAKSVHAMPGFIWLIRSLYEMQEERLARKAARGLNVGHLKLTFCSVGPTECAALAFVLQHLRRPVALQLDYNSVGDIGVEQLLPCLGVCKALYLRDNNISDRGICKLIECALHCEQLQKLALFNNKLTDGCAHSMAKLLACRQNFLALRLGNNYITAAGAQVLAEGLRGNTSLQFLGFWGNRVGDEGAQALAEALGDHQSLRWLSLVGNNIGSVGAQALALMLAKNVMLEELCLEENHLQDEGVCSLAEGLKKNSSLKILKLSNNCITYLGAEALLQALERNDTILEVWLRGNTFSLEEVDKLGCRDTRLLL

HEK293 [16] = assay: NOD2 signaling inhibitors in MDP-stimulated cells, cell-based, uHTS, luminescence (AID 2001); type: functional; conditions: Homo sapiens
HEK293 [17] = assay: cells; type: functional, cell-based; conditions: Homo sapiens; remark: listed apart in the source
Tumor necrosis factor = Tumor necrosis factor (Homo sapiens, UniProt P01375); assay: analog potency on TNFa NF-kB signaling – cell-based, revised, SAR follow-up (AID 2337); type: functional
Sequence of Tumor necrosis factor (P01375 whole entry, the tested form may be a part): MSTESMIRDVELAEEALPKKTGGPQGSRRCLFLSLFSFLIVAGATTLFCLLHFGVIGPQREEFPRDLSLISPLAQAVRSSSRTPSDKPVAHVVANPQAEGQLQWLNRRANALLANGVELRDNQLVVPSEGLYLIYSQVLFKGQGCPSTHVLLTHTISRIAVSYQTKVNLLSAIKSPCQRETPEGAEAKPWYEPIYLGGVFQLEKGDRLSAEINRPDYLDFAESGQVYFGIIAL

[18] = biological target: Nucleotide-binding oligomerization domain-containing protein 1 (Homo sapiens, UniProt Q9Y239); assay: blockers of NOD1 pathway activity – revised, SAR follow-up (AID 2333); type: functional
Sequence of Nucleotide-binding oligomerization domain-containing protein 1 (Q9Y239 whole entry, the tested form may be a part): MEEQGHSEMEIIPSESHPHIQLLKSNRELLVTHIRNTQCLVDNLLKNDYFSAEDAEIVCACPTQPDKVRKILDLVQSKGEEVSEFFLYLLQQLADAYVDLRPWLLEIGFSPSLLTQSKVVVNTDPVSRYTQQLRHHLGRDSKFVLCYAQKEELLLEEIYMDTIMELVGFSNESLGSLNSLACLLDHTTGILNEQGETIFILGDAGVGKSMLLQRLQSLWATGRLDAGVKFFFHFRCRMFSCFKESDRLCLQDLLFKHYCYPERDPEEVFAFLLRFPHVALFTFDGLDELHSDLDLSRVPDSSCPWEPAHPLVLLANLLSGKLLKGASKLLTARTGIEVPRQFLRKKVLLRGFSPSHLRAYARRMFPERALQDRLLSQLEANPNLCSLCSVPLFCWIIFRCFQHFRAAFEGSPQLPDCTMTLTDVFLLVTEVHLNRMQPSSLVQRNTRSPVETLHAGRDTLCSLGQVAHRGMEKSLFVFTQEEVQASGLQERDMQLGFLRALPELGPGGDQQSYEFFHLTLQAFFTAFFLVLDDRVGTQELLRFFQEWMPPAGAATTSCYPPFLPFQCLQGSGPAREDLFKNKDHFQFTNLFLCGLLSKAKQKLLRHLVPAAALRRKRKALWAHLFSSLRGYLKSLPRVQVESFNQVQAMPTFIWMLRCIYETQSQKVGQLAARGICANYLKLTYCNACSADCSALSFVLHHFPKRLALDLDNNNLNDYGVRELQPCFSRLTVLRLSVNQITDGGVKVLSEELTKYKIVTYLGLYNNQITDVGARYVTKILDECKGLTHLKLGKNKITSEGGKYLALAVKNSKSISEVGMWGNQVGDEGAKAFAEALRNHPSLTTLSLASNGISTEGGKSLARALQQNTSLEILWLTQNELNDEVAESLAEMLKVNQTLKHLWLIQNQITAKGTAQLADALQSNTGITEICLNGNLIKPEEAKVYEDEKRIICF

HEK293 [19] = assay: cells; conditions: Homo sapiens

## COc1cccc(-c2nn3c(-c4ccccn4)nnc3s2)c1
H9c2
  IC50: 16.5 µM (active)
Escherichia coli
  AC50: 192 µM (active)

## Cc1cc2nc(C)n(CCCNC(=O)Nc3cccc4ccccc34)c2cc1C
[1]
  IC50: 1.7 µM (active)
[2]
  IC50: 1.99 µM (active)
[3]
  AC50: 3.19 µM (active)
[4]
  AC50: 28.5 µM (active)
[5]
  AC50: 6.38 µM (active)

## Cc1[nH]c2ccccc2c1N=Nc1c(C)n(C)n(-c2ccccc2)c1=O
[6]
  IC50: > 79.4 µM (inactive)
[7]
  IC50: > 79.4 µM (inactive)
[8]
  IC50: > 79.4 µM (inactive)
[9]
  IC50: 41.1 µM (active)

## CCc1cc(=O)oc2c(C)c(OC(C)C(=O)NC3CC(C)(C)NC(C)(C)C3)ccc12 (stereo not drawn)
Trypsin
  AC50: 14.1 µM (active)
CAAX prenyl protease 2 [10]
  AC50: 17.5 µM (active)
CAAX prenyl protease 2 [11]
  AC50: 17 µM (active)

## Cc1onc(-c2ccccc2)c1C(=O)Nc1ncc([N+](=O)[O-])s1
HEK293 [12]
  EC50: 2.25 µM (active)
HEK293 [13]
  IC50: 15.8 µM (active)
HEK293 [14]
  IC50: > 20 µM (inactive)
[15]
  EC50: 2.62 µM (active)
HEK293 [16]
  IC50: 8.73 µM (active)
HEK293 [17]
  IC50: > 20 µM (inactive)
Tumor necrosis factor
  IC50: 6.31 µM (active)
[18]
  IC50: 4.88 µM (active)
HEK293 [19]
  IC50: 18 µM (active)
